Laboratory results taken from ChEMBL document CHEMBL5303304, “EUbOPEN Chemogenomics Library - IncuCyte” (2023).

Columns and labels:
Assay type in all cases: toxicity, cell-based
Fibroblast = test: Incucyte cell viability with human fibroblast; conditions: 10 µM, compound concentration 10 uM
U2OS = test: Incucyte cell viability with U2OS; conditions: human, 10 µM, compound concentration 10 uM
HEK-293T = test: Incucyte cell viability with HEK293T; conditions: human, 10 µM, compound concentration 10 uM
Also: unitless GR value; below 1 slowed growth and below 0 cell loss.

Row | Structure (SMILES) | Growth Rate (Fibroblast; 24 h, replicate number 2) | Growth Rate (U2OS; 0 h, replicate number 1) | Growth Rate (U2OS; 6 h, replicate number 1) | Growth Rate (U2OS; 6 h, replicate number 2) | Growth Rate (U2OS; 12 h, replicate number 1) | Growth Rate (U2OS; 18 h, replicate number 1) | Growth Rate (U2OS; 18 h, replicate number 2) | Growth Rate (HEK-293T; 6 h, replicate number 1) | Growth Rate (HEK-293T; 6 h, replicate number 2) | Growth Rate (HEK-293T; 12 h, replicate number 2) | Growth Rate (HEK-293T; 18 h, replicate number 2) | Growth Rate (HEK-293T; 24 h, replicate number 2) | Growth Rate (Fibroblast; 6 h, replicate number 2) | Growth Rate (HEK-293T; 12 h, replicate number 1) | Growth Rate (HEK-293T; 18 h, replicate number 1) | Growth Rate (HEK-293T; 24 h, replicate number 1) | Growth Rate (Fibroblast; 12 h, replicate number 2) | Growth Rate (Fibroblast; 18 h, replicate number 1) | Growth Rate (Fibroblast; 18 h, replicate number 2) | Growth Rate (Fibroblast; 24 h, replicate number 1) | other results
1 | Cc1nccn1CC1CCc2c(c3ccccc3n2C)C1=O.Cl (stereo not drawn) | 0.9 | -0.28 | 0.77 | 0.44 | 0.96 | 0.91 | 0.88 | 0.82 | 0.6 | 0.75 | 0.79 | 0.87 |  |  |  |  |  |  |  |  | 
2 | COc1cc(N)c(Cl)cc1C(=O)NC1CN2CCC1CC2.Cl (stereo not drawn) |  |  | 0.67 | 0.95 | 0.95 |  | 1 | -0.18 | -0.12 | 0.19 | 0.29 | 0.38 | -0.28 | 0.31 | 0.18 | 0.31 |  |  |  |  | Growth Rate (Fibroblast; 0 h, replicate number 2): -0.73; Growth Rate (Fibroblast; 6 h, replicate number 1): -0.82; Growth Rate (Fibroblast; 12 h, replicate number 1): 0.48; Growth Rate (U2OS; 0 h, replicate number 2): -0.2
3 | COc1c(C(=O)/C=C/c2ccccc2)c(O)c(OC)c2occc12 | 0.71 | -0.43 | 0.86 | 0.76 | 0.64 | 0.71 | 0.55 | -0.45 | -0.38 | 0.28 | 0.53 | 0.75 | -0.26 | 0.27 | 0.86 |  | 0.35 | 0 | 0.84 | 0.86 | Growth Rate (Fibroblast; 12 h, replicate number 1): -0.31; Growth Rate (U2OS; 0 h, replicate number 2): -0.14; Growth Rate (U2OS; 12 h, replicate number 2): 0.6; Growth Rate (U2OS; 24 h, replicate number 1): 0.78; Growth Rate (U2OS; 24 h, replicate number 2): 0.83
4 | O=C1CSC(=O)N1C(CCc1ccncc1)COc1ccc(-c2cccc([N+](=O)[O-])c2)cc1 (stereo not drawn) |  | -0.68 | 0.3 |  | 0.76 | 0.8 | 0.95 | -0.06 | 0.02 | 0.27 |  | 0.65 |  | 0.24 | 0.48 | 0.87 |  | 0.92 |  | 0.45 | Growth Rate (Fibroblast; 0 h, replicate number 1): 0.71; Growth Rate (Fibroblast; 0 h, replicate number 2): -0.87; Growth Rate (U2OS; 0 h, replicate number 2): -0.97; Growth Rate (U2OS; 12 h, replicate number 2): 0.94; Growth Rate (U2OS; 24 h, replicate number 1): 0.89; Growth Rate (U2OS; 24 h, replicate number 2): 1
5 | O=c1c(Br)ccc2n1C[C@@H]1CNC[C@H]2C1 | 0.89 |  |  | 0.92 |  |  |  | 0.59 |  |  |  |  |  | 0.4 | 0.61 | 0.89 |  |  |  |  | Growth Rate (Fibroblast; 0 h, replicate number 1): 0.52; Growth Rate (Fibroblast; 0 h, replicate number 2): -0.26; Growth Rate (Fibroblast; 6 h, replicate number 1): -0.94
6 | CC(CNS(=O)(=O)C(C)C)c1ccc(-c2ccc(C#N)cc2)cc1 (stereo not drawn) | 0.51 |  |  |  | 0.81 | 0.83 | 0.73 | -0.35 |  | -0.01 | 0.16 | 0.22 | -0.76 | -0.18 | 0 | 0.05 | 0.02 | -0.2 | 0.43 | 0.14 | Growth Rate (Fibroblast; 0 h, replicate number 1): 0.04; Growth Rate (Fibroblast; 6 h, replicate number 1): 0.92; Growth Rate (Fibroblast; 12 h, replicate number 1): -0.89; Growth Rate (U2OS; 0 h, replicate number 2): 0.02; Growth Rate (U2OS; 12 h, replicate number 2): 0.82; Growth Rate (U2OS; 24 h, replicate number 1): 0.9; Growth Rate (U2OS; 24 h, replicate number 2): 0.84
7 | CC(C)(O)c1ccc2c(c1)ncn2-c1cccc(-c2ccccc2C#N)c1 |  | 0.93 |  |  |  |  |  | 0.78 | -0.24 | 0.2 | 0.48 | 0.54 | -0.67 | 0.77 | 0.65 | 0.73 | 0.33 | 0.64 | 0.52 | 0.28 | Growth Rate (Fibroblast; 0 h, replicate number 1): 0.6; Growth Rate (Fibroblast; 0 h, replicate number 2): -0.48; Growth Rate (Fibroblast; 12 h, replicate number 1): 0.43; Growth Rate (U2OS; 0 h, replicate number 2): 0.83
8 | Cc1c(C(=O)Nc2cccc(C(F)(F)F)c2)cc(-c2ccccc2)n1CCCN1CCOCC1.Cl | 0.84 | 0.27 |  |  |  |  | 0.88 | -0.17 | -0.54 | 0.01 | 0.27 | 0.37 | 0.1 | 0.11 | 0.32 | 0.46 | 0.65 |  | 0.73 |  | Growth Rate (Fibroblast; 6 h, replicate number 1): -0.95; Growth Rate (U2OS; 12 h, replicate number 2): 0.89; Growth Rate (U2OS; 24 h, replicate number 2): 0.95
9 | Cl.Cl.O=[N+]([O-])c1ccc(CN2CCOCCOCCN(Cc3ccc([N+](=O)[O-])cc3)CCOCC2)cc1 | 0.84 |  | -0.05 | 0.19 | 0.28 | 0.69 | 0.56 | -0.5 | -0.29 | 0.2 | 0.39 | 0.52 | -0.71 | 0.04 | 0.13 | 0.2 | 0.3 | -0.4 | 0.63 | -0.06 | Growth Rate (Fibroblast; 0 h, replicate number 1): 0.74; Growth Rate (Fibroblast; 12 h, replicate number 1): -0.95; Growth Rate (U2OS; 12 h, replicate number 2): 0.21; Growth Rate (U2OS; 24 h, replicate number 1): 0.67; Growth Rate (U2OS; 24 h, replicate number 2): 0.76
10 | O=C(Nc1cccc(C(F)(F)F)c1)c1cc(Cl)ccc1O | -0.46 | -0.07 | 0.96 | 0.71 | 0.63 | 0.4 | 0.41 | -0.8 | -0.84 | -0.56 | -0.41 | -0.3 | -0.88 | -0.85 | -0.77 | -0.67 | -0.65 | 0.8 | -0.55 | 0.08 | Growth Rate (Fibroblast; 6 h, replicate number 1): -0.98; Growth Rate (U2OS; 12 h, replicate number 2): 0.59; Growth Rate (U2OS; 24 h, replicate number 1): 0.28; Growth Rate (U2OS; 24 h, replicate number 2): 0.27
